The text below walks through data of ChEMBL document CHEMBL1201862, “PubChem BioAssay data set” (2004).

Several values for one entry are separate records, joined by “and”; a condition that tells them apart may be missing. Identical values can stand only once.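 These data come from cells grown in 96-well plates and exposed to compound for 48 hours at five concentrations. At the GI50, growth is halved.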 Activity calls are given as the source filed them. Cut-off read from the data, not from the text of the source: active = GI50 up to about 1.1 µM and inactive = higher.

Among the test systems are 786-0; A498; A549; COLO 205; HOP-92; HT-29; Hs-578T; MDA-MB-435; MDA-N; NCI-H522; NCI/ADR-RES; SF-539; SK-MEL-28; SK-OV-3; SW-620; TK-10; UO-31; Malme-3M; SK-MEL-5; DU-145.
What all share (experiment): inhibition of tumour cell growth, NCI panel, 48 h

Consider `CCN(CC)CCC(=O)OC1C(C)=CC(C)C(=O)CC(C(C)CC2CCC(O)C(OC)C2)OC(=O)C2CCCCN2C(=O)C(=O)[C@@]2(O)OC(CCC2C)CC(OC)\C(C)=C/C=C/C=C/C(C)CC(C)C(=O)C1OC` (some centres undefined), for which the GI50 in the test on 786-0 was 7.91 µM (inactive); with A498, < 0.01 µM (active); in the test on A549, < 0.01 µM (active); with COLO 205, 12.1 µM (inactive); in the test with HOP-92, < 0.01 µM (active); with HT-29, 1.91 µM (inactive). Also, the GI50 is < 0.01 µM (active) with Hs-578T; 4.57 µM (inactive) in the test with MDA-MB-435; 8.61 µM (inactive) in the test on MDA-N; 12.2 µM (inactive) with NCI-H522; 11.3 µM (inactive) with NCI/ADR-RES; < 0.01 µM (active) with SF-539. In addition, the GI50 in the test on SK-MEL-28 is 0.0791 µM (active); in the test on SK-OV-3 it was < 0.01 µM (active); in the test on SW-620, 11.6 µM (inactive); with TK-10, 5.69 µM (inactive); in the test with UO-31, < 0.01 µM (active).

In the case of `Cc1nc2c(o1)C(=O)c1ccccc1/C2=N/c1ccccn1`, the GI50 in the test with 786-0 was 25.6 µM (inactive); in the test with A498 it was 16.7 µM (inactive); in the test on A549 it was 31.8 µM (inactive); in the test on COLO 205, 35.6 µM (inactive); in the test with HOP-92, 18.2 µM (inactive); in the test on HT-29 it was 18.8 µM (inactive). Besides, the GI50 was 14.8 µM (inactive) in the test with Hs-578T; 17.9 µM (inactive) with MDA-MB-435; 17.3 µM (inactive) in the test with MDA-N; 12.5 µM (inactive) with Malme-3M; 19 µM (inactive) in the test on NCI-H522; 15.8 µM (inactive) in the test on NCI/ADR-RES. For the same compound, the GI50 was 18.2 µM (inactive) with SF-539; 18.8 µM (inactive) with SK-MEL-28; 16.7 µM (inactive) in the test on SK-MEL-5; > 100 µM (inactive) in the test with SK-OV-3; 17.8 µM (inactive) in the test with SW-620; > 100 µM (inactive) in the test on TK-10. Further, in the test on UO-31, the GI50 was 22.6 µM (inactive).

Take `CC1C2CC(CC2=O)C1(C)C` (centres undefined): the GI50 with 786-0, in the test with A498, with A549, in the test with COLO 205, in the test on DU-145 and in the test on HOP-92 was > 100 µM (inactive) in each case. In addition, the GI50 with HT-29, with Hs-578T, in the test on MDA-MB-435, in the test on MDA-N, with Malme-3M and in the test on NCI-H522 was > 100 µM (inactive) throughout. The GI50 in the test on SF-539, with SK-MEL-28, with SK-MEL-5, with SK-OV-3, in the test on SW-620 and with TK-10 was > 100 µM (inactive) in each case. The GI50 in the test on UO-31 was > 100 µM (inactive).

As for `N#Cc1c(-c2ccccc2)c(C#N)c(=S)n(C2OC(CO)C(O)C(O)C2O)c1N` (centres undefined), the GI50 in the test with 786-0 was > 100 µM (inactive); in the test with A498, 38.7 µM (inactive) and 44.2 µM (inactive); in the test on A549, > 100 µM (inactive); in the test on DU-145 it was > 100 µM (inactive); with HT-29, > 100 µM (inactive); in the test on Hs-578T, 79.8 µM (inactive). Also, the GI50 is > 100 µM (inactive) with MDA-N; > 100 µM (inactive) with Malme-3M; 33.4 µM (inactive) and 51.5 µM (inactive) in the test with NCI-H522; > 100 µM (inactive) with SF-539; > 100 µM (inactive) in the test on SK-MEL-28; 71.6 µM (inactive) in the test on SK-MEL-5. In the test on SW-620, the GI50 is > 100 µM (inactive).

Take `C=CCCCN(C(=O)c1ccccc1)c1ccc(C(=O)OC)o1`: the GI50 with 786-0 is > 100 µM (inactive); in the test with A498 it was > 100 µM (inactive); in the test on A549 it was > 100 µM (inactive); in the test on COLO 205 it was 81.1 µM (inactive); in the test with DU-145 it was > 100 µM (inactive); in the test with HOP-92, > 100 µM (inactive). For the same compound, the GI50 is > 100 µM (inactive) in the test with HT-29; > 100 µM (inactive) with Hs-578T; 51.9 µM (inactive) with MDA-N; > 100 µM (inactive) with Malme-3M; 64.3 µM (inactive) in the test with NCI-H522; 52.5 µM (inactive) in the test with NCI/ADR-RES. In addition, the GI50 in the test on SF-539 is > 100 µM (inactive); in the test on SK-MEL-5, 31 µM (inactive); in the test with SK-OV-3 it was > 100 µM (inactive); in the test on TK-10, > 100 µM (inactive); in the test with UO-31, > 100 µM (inactive).

Turning to `Cc1nc(N)sc1/N=N/c1cc(Cl)c([N+](=O)[O-])cc1Cl`, the GI50 was 19.7 µM (inactive) in the test with 786-0; 12.8 µM (inactive) in the test on A549; 31 µM (inactive) in the test with COLO 205; 13.6 µM (inactive) in the test on DU-145; 12.4 µM (inactive) in the test with HT-29; 21.9 µM (inactive) in the test on Hs-578T. Besides, the GI50 with MDA-MB-435 is 19.4 µM (inactive); with Malme-3M, 12 µM (inactive); with NCI-H522, 15.5 µM (inactive); in the test with NCI/ADR-RES, 20.6 µM (inactive); with SF-539, 17.3 µM (inactive); with SK-MEL-28 it was 10.7 µM (inactive). The GI50 is 4.22 µM (inactive) with SK-MEL-5; 74.6 µM (inactive) in the test on SK-OV-3; 16.4 µM (inactive) with SW-620; 21.4 µM (inactive) with TK-10; 24.9 µM (inactive) in the test on UO-31.

As to `CCOC(=O)NCC(=O)NCC(=O)NCC(N)=O`, the GI50 in the test with 786-0, in the test with A549, in the test on COLO 205, with DU-145, in the test on HT-29 and with Hs-578T was > 100 µM (inactive) throughout. Also, the GI50 with MDA-MB-435, in the test with MDA-N, with Malme-3M, in the test on NCI-H522, in the test with NCI/ADR-RES and in the test with SK-MEL-28 was > 100 µM (inactive) each time. For the same compound, the GI50 in the test with SK-MEL-5, in the test on SK-OV-3, in the test with SW-620, with TK-10 and with UO-31 was > 100 µM (inactive) in each case.

As for `COc1cc2c(cc1OC)C(=O)/C(=C/c1ccc([N+](=O)[O-])cc1)CC2`, the GI50 with 786-0, in the test with A549, in the test on COLO 205, in the test with DU-145, in the test with HOP-92 and with HT-29 was > 10 µM (inactive) in each case. The GI50 with Hs-578T, in the test with MDA-MB-435, in the test with MDA-N, in the test with Malme-3M, in the test with NCI/ADR-RES and in the test with SF-539 was > 10 µM (inactive) in each case. Moreover, the GI50 with SK-MEL-28, in the test with SK-MEL-5, in the test on SK-OV-3, in the test with SW-620 and in the test on TK-10 was > 10 µM (inactive) in each case.

With `Cc1ccc(N(C(=O)Nc2ccc(F)c(Cl)c2)C2=NCC(C)S2)cc1` (centres undefined), the GI50 in the test on 786-0 is 57.8 µM (inactive); in the test on A498, 34.3 µM (inactive); in the test on A549 it was 57.3 µM (inactive); in the test on COLO 205, 72.4 µM (inactive); in the test with DU-145, > 100 µM (inactive); in the test with HT-29, 36 µM (inactive). The GI50 was > 100 µM (inactive) with Hs-578T; 46.7 µM (inactive) in the test on MDA-N; 77.3 µM (inactive) in the test with Malme-3M; 22.6 µM (inactive) with NCI/ADR-RES; 76.9 µM (inactive) in the test on SF-539; 19.9 µM (inactive) with SK-MEL-28. For the same compound, the GI50 is 18.7 µM (inactive) in the test on SK-MEL-5; > 100 µM (inactive) with SK-OV-3; 74 µM (inactive) in the test on SW-620; 29.7 µM (inactive) in the test with TK-10; > 100 µM (inactive) in the test on UO-31.

Regarding `Cc1ccc(S(=O)(=O)NC(=O)NC(CO)C(=O)O)cc1` (centres undefined), the GI50 in the test with 786-0, in the test on A549, with COLO 205, in the test with DU-145, with HOP-92 and in the test with HT-29 was > 100 µM (inactive) each time. The GI50 with Hs-578T, in the test with MDA-N, in the test on Malme-3M, in the test on NCI-H522, in the test on NCI/ADR-RES and in the test with SF-539 was > 100 µM (inactive) each time. Also, the GI50 in the test on SK-MEL-28, in the test with SK-MEL-5, in the test on SK-OV-3, in the test on SW-620, in the test with TK-10 and in the test on UO-31 was > 100 µM (inactive) in each case.

`CC(C)(CN1CCCCC1)C(/C=C/c1ccccc1)=N\NC(=O)N/N=C(/C=C/c1ccccc1)C(C)(C)CN1CCCCC1`: the GI50 in the test on 786-0 is 1.46 µM (inactive); with A498, 1.5 µM (inactive); in the test with A549 it was 2.43 µM (inactive); in the test on COLO 205, 1.44 µM (inactive); in the test on HOP-92, 1.75 µM (inactive); in the test on HT-29 it was 1.07 µM (active). The GI50 with Hs-578T was 2.67 µM (inactive); with MDA-MB-435 it was 1.51 µM (inactive); with MDA-N, 1.63 µM (inactive); with Malme-3M, 2.04 µM (inactive); with NCI-H522, 1.83 µM (inactive); in the test on NCI/ADR-RES, 1.74 µM (inactive). Further, the GI50 in the test with SK-MEL-28 was 1.68 µM (inactive); in the test on SK-MEL-5, 1.72 µM (inactive); with SK-OV-3, 3.32 µM (inactive); with SW-620, 1.7 µM (inactive); with TK-10, 1.75 µM (inactive); in the test with UO-31, 1.13 µM (inactive).
